In ChEMBL document CHEMBL1150824, “New xenicane diterpenoids from the gorgonian Acalycigorgia inermis” (2001):
Converted amounts (≈) assume the structure as drawn. The source made the active and inactive calls. The calls are words filed in the database; no cut-off is given here.

How the values were obtained:
[1] = Inhibition of FPTase at 10 ug/mL
HUVEC [2] = assay: Antiangiogenic activity in HUVEC assessed as inhibition of bFGF-induced tube formation at 10 ug/mL; format: functional, cell-based; conditions: Homo sapiens
[3] = Inhibition of FPTase up to 20 ug/mL
HUVEC [4] = assay: Antiangiogenic activity in HUVEC assessed as inhibition of bFGF-induced tube formation up to 20 ug/mL; format: functional, cell-based; conditions: Homo sapiens
K562 = assay: Cytotoxicity against human K562 cells; format: functional; conditions: read-out: LC50 (the source's name)

C=C1CC[C@@H]2O[C@@]2(C)CC[C@@H]2[C@H](CCC=C(C)C)C(=O)OC[C@@H]12
Activity [1]: inactive
Activity (HUVEC [2]): inactive
Activity [3]: inactive
Activity (HUVEC [4]): inactive

C=C=CCC(OC(C)=O)C1=CO[C@H](OC(C)=O)[C@H]2C(=C)CC[C@@H]3O[C@@]3(C)CC[C@H]12 (stereo partly specified)
inhibition [1]: 82%
Activity (HUVEC [2]): Active

C=C1CC/C=C(\C)CC[C@@H]2/C(=C\C=C\C(C)(C)O)C(=O)OC[C@@H]12 [9-DEOXYXENIOLIDE A]
CC50 (K562): 0.04 µg/mL (≈ 0.126 µM)
Activity [1]: inactive
Activity (HUVEC [2]): inactive
Activity [3]: inactive
Activity (HUVEC [4]): inactive

C=C1CC[C@@H]2O[C@@]2(C)CC[C@@H]2[C@H](CC/C=C(\C)C(=O)OC)C(=O)OC[C@@H]12 [ACALYCIXENIOLIDE H]
CC50 (K562): 3.9 µg/mL (≈ 10.8 µM)
Activity [1]: inactive
Activity (HUVEC [2]): inactive
Activity [3]: inactive
Activity (HUVEC [4]): inactive

C=C1CC/C=C(\C)CC[C@@H]2[C@H](CC/C=C(\C)CO)C(=O)OC[C@@H]12 [ACALYCIXENIOLIDE I]
CC50 (K562): 1.2 µg/mL (≈ 3.77 µM)
Activity [1]: inactive
Activity (HUVEC [2]): inactive
Activity [3]: inactive
Activity (HUVEC [4]): inactive

C=C1CC/C=C(\C)CC[C@@H]2[C@H](C/C=C/C(C)(C)O)C(=O)OC[C@@H]12 [ACALYCIXENIOLIDE J]
CC50 (K562): 2 µg/mL (≈ 6.28 µM)
Activity [1]: inactive
Activity (HUVEC [2]): inactive
Activity [3]: inactive
Activity (HUVEC [4]): inactive

C=C1CC/C=C(\C)CC[C@@H]2[C@H](CC/C=C\CO)C(=O)OC[C@@H]12 [ACALYCIXENIOLIDE K]
CC50 (K562): 1.8 µg/mL (≈ 5.91 µM)
Activity [1]: inactive
Activity (HUVEC [2]): inactive
Activity [3]: inactive
Activity (HUVEC [4]): inactive

C=C1CC/C=C(\C)CC[C@@H]2[C@H](CC/C=C/CO)C(=O)OC[C@@H]12 [ACALYCIXENIOLIDE L]
CC50 (K562): 1.5 µg/mL (≈ 4.93 µM)
Activity [1]: inactive
Activity (HUVEC [2]): inactive
Activity [3]: inactive
Activity (HUVEC [4]): inactive
